The source of these data is ChEMBL document CHEMBL1201862, “PubChem BioAssay data set” (2004).

Test systems include 786-0; A549; CCRF-CEM; HCC 2998; HCT-116; HOP-62; Hs-578T; IGROV-1; MDA-MB-231; MDA-MB-435; Malme-3M; NCI-H460; NCI-H522; NCI/ADR-RES; OVCAR-4; PC-3; SF-268; SN12C; UO-31; SNB-19.
What all share (experiment): NCI-60 cell line screen, 48 h

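Method: 48-hour compound exposure of cells in 96-well plates, five concentrations, linear interpolation of endpoints. GI50: concentration for 50% inhibition of growth.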 Calls of active or inactive are those of the source. No stated cut-off is given here; in the data, active = GI50 up to about 1.1 µM and inactive = higher.

As to `COC(=O)C1(Cc2ccccc2)Cc2ccccc2C1O` (stereo not given), the GI50 in the assay on 786-0 is > 100 µM (inactive); in the assay on A549, 87.5 µM (inactive); with CCRF-CEM, > 100 µM (inactive); with HCC 2998, > 100 µM (inactive); in the assay on HCT-116 it was > 100 µM (inactive); with HOP-62, > 100 µM (inactive). Also, the GI50 in the assay on Hs-578T was 55.1 µM (inactive); in the assay on IGROV-1, > 100 µM (inactive); in the assay with MDA-MB-231, > 100 µM (inactive); in the assay with MDA-MB-435, > 100 µM (inactive); in the assay with Malme-3M it was > 100 µM (inactive); in the assay with NCI-H460, > 100 µM (inactive). The GI50 was 56.8 µM (inactive) in the assay with NCI-H522; > 100 µM (inactive) in the assay on NCI/ADR-RES; 29.8 µM (inactive) in the assay on OVCAR-4; > 100 µM (inactive) in the assay with PC-3; > 100 µM (inactive) in the assay on SF-268; > 100 µM (inactive) in the assay with SN12C. For the same compound, the GI50 in the assay with UO-31 is 62.4 µM (inactive).
For the compound `CC[C@@]1(O)C(=O)OCc2c1cc1n(c2=O)Cc2c-1nc1ccc(O)cc1c2[Si](C)(C)C(C)(C)C` [AR-67], the GI50 in the assay on 786-0 is < 0.01 µM (active); in the assay on A549 it was < 0.01 µM (active); in the assay with CCRF-CEM, < 0.01 µM (active); with HCC 2998, 0.0205 µM (active); in the assay with HCT-116, < 0.01 µM (active); in the assay on Hs-578T, 0.339 µM (active). Moreover, the GI50 in the assay with IGROV-1 was < 0.019 µM (active); in the assay with MDA-MB-231, 0.286 µM (active); in the assay with MDA-MB-435, < 0.01 µM (active); with Malme-3M, < 0.01 µM (active); in the assay with NCI-H460 it was < 0.01 µM (active); with NCI-H522, < 0.01 µM (active). The GI50 was 0.0324 µM (active) in the assay on NCI/ADR-RES; 0.0282 µM (active) in the assay with OVCAR-4; < 0.0208 µM (active) with PC-3; < 0.01 µM (active) in the assay on SF-268; < 0.01 µM (active) with SN12C; < 0.01 µM (active) in the assay with SNB-19. In addition, the GI50 in the assay on UO-31 is < 0.01 µM (active).
In the case of `CCN1CC2=C(N=c3s/c(=C\c4ccc(Cl)cc4)c(=O)n3C2c2ccc(Cl)cc2)/C(=C/c2ccc(Cl)cc2)C1` (stereo not given), the GI50 was 10.4 µM (inactive) in the assay with 786-0; > 100 µM (inactive) in the assay with A549; 73.3 µM (inactive) in the assay on CCRF-CEM; > 100 µM (inactive) with HCC 2998; 44.1 µM (inactive) with HCT-116; 14.7 µM (inactive) with HOP-62. Moreover, the GI50 was 25.8 µM (inactive) in the assay with Hs-578T; 67.3 µM (inactive) in the assay with IGROV-1; 25.6 µM (inactive) in the assay on MDA-MB-231; > 100 µM (inactive) with MDA-MB-435; > 100 µM (inactive) with Malme-3M; > 100 µM (inactive) with NCI-H460. Moreover, the GI50 with NCI-H522 was > 100 µM (inactive); with NCI/ADR-RES it was > 100 µM (inactive); with OVCAR-4, > 100 µM (inactive); in the assay on PC-3 it was > 100 µM (inactive); in the assay on SF-268, 24.9 µM (inactive); in the assay with SNB-19, 44.4 µM (inactive). For the same compound, in the assay with UO-31, the GI50 is > 100 µM (inactive).
With `COC/C=C\[C@]1(O)CCCC[C@@H]1CC(OC)OC`, the GI50 in the assay on 786-0 was > 100 µM (inactive); in the assay with A549, > 100 µM (inactive); in the assay on CCRF-CEM, 37.1 µM (inactive); in the assay on HCC 2998, > 100 µM (inactive); with HOP-62 it was > 100 µM (inactive); in the assay on Hs-578T, > 100 µM (inactive). Also, the GI50 was > 100 µM (inactive) with IGROV-1; > 100 µM (inactive) in the assay on MDA-MB-231; > 100 µM (inactive) in the assay on MDA-MB-435; > 100 µM (inactive) in the assay with Malme-3M; > 100 µM (inactive) in the assay with NCI-H460; 67.5 µM (inactive) with NCI-H522. Moreover, the GI50 with NCI/ADR-RES, with OVCAR-4, in the assay on PC-3, in the assay with SF-268, in the assay on SNB-19 and in the assay on UO-31 was > 100 µM (inactive) throughout.
